The source of these data is PMC7084345, “Differential Inhibitory Actions of Multitargeted Tyrosine Kinase Inhibitors on Different Ionic Current Types in Cardiomyocytes” (International Journal of Molecular Sciences, 2020).

The target in this assay is T1, KV7.1 (KCNQ1) channel, IK(S) (Rattus norvegicus, UniProt Q9Z0N7).
T1 construct: native IK(S) in H9c2 cells
T1 sequence (Q9Z0N7 1-669): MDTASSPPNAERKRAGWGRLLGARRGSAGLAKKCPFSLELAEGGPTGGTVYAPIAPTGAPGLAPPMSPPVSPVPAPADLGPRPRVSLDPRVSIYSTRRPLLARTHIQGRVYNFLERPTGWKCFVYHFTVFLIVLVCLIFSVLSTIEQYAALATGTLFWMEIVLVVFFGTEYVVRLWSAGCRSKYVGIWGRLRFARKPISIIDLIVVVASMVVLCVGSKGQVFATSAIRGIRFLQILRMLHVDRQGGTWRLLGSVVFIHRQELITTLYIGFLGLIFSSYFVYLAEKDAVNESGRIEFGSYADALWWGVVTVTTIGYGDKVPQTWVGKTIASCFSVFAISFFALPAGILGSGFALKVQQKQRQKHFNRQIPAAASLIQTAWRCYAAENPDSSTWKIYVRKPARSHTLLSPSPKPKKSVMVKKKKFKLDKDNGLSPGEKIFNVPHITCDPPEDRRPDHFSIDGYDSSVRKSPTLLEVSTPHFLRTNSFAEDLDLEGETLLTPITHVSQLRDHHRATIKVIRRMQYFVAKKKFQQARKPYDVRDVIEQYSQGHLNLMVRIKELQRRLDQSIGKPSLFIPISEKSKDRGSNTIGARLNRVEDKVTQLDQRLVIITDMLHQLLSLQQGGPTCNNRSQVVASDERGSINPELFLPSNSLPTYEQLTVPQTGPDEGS
Description: whole-cell patch clamp of native IK(S) in H9c2 cells. Type of assay: cell-based.

In turn, `CS(=O)(=O)CCNCc1ccc(-c2ccc3ncnc(Nc4ccc(OCc5cccc(F)c5)c(Cl)c4)c3c2)o1` [LAP, lapatinib] had an IC50 of 1840 nM.
